Structures can show the parent of a compound that is named as a salt. Activity calls are given as the source filed them.
Legend:
[1] = molecular target: T1, Protein skinhead-1 (Caenorhabditis elegans, UniProt P34707); format: functional
T1 sequence (P34707 whole entry): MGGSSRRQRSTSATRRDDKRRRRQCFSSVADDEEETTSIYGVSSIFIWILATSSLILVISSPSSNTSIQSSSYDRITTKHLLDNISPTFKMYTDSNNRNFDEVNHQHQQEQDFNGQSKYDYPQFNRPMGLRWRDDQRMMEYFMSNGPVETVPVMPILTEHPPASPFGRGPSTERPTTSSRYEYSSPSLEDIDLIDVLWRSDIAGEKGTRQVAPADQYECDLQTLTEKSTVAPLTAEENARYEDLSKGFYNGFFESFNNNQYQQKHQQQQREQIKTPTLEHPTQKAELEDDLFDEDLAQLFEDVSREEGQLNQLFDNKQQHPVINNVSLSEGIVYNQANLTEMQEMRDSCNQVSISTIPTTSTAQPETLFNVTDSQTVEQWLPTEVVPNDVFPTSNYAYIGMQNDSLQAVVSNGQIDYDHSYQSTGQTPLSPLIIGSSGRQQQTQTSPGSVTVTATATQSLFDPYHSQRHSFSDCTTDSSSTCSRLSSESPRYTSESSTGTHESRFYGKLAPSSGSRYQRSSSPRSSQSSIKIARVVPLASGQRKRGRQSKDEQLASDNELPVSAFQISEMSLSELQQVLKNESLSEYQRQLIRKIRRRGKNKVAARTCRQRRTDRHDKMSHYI

[2] = molecular target: T2, Oxysterols receptor LXR-beta (Homo sapiens, UniProt P55055); format: functional, cell-based;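 note: Cell-based luminescence dose-response assay of agonist activity at LXR, run as a confirmatory counterscreen to a daf-12 agonist screen; HEK293 cells with Gal4-LXR fusion and GAL4-driven luciferase reporter; agonist potency from rising luciferase signal of a Gal4-LXR reporter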
T2 sequence (P55055 whole entry): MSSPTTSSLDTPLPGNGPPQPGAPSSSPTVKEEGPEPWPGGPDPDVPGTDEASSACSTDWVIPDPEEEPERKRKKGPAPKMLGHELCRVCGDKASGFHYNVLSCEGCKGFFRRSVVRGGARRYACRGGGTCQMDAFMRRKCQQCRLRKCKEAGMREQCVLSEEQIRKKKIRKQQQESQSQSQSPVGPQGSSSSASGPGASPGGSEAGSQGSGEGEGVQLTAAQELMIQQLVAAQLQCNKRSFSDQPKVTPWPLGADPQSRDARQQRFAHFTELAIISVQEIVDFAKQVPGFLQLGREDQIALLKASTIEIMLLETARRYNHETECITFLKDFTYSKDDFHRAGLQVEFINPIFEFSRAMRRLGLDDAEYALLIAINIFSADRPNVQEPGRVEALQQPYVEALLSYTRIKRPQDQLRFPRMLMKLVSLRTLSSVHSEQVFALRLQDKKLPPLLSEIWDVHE

[3] = cells
[4] = molecular target: Voltage-dependent T-type calcium channel subunit alpha-1H (Homo sapiens, UniProt O95180); format: functional;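 note: channel activity triggered by adding a high calcium stimulation buffer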
Voltage-dependent T-type calcium channel subunit alpha-1H, sequence (O95180 whole entry): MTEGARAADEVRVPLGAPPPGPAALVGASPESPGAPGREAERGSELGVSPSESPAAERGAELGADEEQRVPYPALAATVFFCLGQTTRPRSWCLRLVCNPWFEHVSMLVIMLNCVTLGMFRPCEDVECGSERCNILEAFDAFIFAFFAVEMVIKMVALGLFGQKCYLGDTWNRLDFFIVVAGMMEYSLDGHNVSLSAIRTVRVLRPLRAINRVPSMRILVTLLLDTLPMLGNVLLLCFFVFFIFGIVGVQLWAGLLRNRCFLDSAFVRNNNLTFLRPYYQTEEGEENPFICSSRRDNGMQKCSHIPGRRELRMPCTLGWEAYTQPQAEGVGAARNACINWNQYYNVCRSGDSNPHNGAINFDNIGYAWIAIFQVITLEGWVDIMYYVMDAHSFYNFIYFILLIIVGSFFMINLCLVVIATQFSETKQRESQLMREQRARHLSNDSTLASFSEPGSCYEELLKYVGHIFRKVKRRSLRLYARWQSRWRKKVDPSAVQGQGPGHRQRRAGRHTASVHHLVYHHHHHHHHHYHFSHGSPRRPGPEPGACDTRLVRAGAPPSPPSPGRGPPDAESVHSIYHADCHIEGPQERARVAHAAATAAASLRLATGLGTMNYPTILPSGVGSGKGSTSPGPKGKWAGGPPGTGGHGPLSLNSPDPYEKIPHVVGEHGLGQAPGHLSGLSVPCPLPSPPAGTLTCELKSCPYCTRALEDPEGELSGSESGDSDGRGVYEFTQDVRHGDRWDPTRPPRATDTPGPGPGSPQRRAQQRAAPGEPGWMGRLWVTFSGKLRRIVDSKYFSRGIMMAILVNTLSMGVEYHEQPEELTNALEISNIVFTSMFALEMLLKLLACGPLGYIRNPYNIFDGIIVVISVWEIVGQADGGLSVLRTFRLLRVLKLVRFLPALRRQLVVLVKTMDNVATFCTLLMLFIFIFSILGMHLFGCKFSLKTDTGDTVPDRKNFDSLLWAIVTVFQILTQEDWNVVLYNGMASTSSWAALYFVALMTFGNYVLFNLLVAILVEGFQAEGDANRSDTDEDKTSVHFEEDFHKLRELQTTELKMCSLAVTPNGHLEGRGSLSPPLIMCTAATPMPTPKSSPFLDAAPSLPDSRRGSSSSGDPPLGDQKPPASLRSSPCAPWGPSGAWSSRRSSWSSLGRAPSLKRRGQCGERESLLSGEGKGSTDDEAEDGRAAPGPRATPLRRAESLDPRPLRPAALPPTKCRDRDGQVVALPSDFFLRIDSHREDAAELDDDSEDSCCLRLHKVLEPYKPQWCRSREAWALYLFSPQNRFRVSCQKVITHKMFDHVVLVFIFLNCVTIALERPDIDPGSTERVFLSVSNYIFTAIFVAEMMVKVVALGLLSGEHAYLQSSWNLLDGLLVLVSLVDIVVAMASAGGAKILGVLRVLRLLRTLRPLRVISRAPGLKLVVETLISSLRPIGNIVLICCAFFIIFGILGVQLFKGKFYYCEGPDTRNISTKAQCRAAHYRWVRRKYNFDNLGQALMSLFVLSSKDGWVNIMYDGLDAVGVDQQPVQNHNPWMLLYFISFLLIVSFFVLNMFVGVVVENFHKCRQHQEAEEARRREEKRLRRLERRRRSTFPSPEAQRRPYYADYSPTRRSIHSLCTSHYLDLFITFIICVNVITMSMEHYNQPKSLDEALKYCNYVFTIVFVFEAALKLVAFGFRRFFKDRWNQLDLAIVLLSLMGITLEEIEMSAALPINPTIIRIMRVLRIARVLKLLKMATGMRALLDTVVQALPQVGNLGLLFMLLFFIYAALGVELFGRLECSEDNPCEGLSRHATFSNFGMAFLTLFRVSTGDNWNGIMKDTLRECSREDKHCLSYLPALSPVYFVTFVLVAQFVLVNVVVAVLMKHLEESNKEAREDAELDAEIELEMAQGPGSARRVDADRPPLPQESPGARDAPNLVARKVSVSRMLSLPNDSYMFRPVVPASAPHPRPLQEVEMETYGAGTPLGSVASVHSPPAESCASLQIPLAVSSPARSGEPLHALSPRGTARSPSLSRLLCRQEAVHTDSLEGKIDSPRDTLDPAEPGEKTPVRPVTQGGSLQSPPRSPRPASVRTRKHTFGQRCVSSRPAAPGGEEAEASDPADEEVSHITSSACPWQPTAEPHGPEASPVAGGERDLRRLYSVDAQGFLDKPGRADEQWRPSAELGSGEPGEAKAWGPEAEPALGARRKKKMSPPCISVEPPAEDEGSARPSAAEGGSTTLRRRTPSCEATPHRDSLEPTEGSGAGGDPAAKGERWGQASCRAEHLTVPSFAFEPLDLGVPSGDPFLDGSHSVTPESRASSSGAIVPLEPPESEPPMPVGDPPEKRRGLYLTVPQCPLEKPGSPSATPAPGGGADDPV

[5] = molecular target: T3, 1-phosphatidylinositol 4,5-bisphosphate phosphodiesterase gamma-1 (Homo sapiens, UniProt P19174); assay: Counterscreen for inhibitors of phospholipase C isozymes (PLC-B3): Fluorescence-based biochemical high throughput dose response assay to identify inhibitors of phospholipase C isozymes (PLC-gamma1).
T3 sequence (P19174 whole entry): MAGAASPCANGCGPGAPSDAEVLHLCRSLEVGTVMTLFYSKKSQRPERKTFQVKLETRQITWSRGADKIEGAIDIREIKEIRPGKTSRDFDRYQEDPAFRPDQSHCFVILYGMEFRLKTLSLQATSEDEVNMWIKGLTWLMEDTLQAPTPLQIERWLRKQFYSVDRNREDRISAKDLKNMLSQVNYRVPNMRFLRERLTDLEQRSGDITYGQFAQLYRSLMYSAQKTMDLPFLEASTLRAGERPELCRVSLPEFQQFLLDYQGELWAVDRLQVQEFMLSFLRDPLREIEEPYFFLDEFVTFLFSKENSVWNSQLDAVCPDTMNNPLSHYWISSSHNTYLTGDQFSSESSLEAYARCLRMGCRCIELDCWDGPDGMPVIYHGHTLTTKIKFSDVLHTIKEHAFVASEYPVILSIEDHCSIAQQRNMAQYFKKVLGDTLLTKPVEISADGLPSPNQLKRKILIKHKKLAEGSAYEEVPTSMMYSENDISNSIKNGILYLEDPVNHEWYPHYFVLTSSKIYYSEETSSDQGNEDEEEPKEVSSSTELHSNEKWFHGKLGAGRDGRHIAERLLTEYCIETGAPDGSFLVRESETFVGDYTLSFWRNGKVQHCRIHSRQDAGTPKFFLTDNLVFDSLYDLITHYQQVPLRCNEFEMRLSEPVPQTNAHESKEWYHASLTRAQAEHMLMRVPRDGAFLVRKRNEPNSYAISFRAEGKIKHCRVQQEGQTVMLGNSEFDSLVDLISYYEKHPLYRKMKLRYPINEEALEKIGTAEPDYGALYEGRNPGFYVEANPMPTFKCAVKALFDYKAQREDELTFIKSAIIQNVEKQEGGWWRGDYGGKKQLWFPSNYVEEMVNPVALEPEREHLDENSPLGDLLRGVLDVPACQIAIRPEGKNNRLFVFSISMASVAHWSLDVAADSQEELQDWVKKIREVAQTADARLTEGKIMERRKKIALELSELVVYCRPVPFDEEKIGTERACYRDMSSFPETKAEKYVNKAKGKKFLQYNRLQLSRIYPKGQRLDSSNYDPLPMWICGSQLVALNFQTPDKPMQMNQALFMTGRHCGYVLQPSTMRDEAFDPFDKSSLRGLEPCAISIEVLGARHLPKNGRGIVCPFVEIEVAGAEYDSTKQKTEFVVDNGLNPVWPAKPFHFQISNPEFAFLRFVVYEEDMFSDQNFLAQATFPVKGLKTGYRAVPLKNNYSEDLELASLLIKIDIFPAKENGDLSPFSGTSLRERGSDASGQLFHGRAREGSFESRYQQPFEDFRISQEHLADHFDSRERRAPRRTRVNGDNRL

[6] = molecular target: T4, 1-phosphatidylinositol 4,5-bisphosphate phosphodiesterase beta-3 (Homo sapiens, UniProt Q01970); assay: Fluorescence-based biochemical high throughput dose response assay to identify inhibitors of phospholipase C isozymes (PLC-B3).
T4 sequence (Q01970 whole entry): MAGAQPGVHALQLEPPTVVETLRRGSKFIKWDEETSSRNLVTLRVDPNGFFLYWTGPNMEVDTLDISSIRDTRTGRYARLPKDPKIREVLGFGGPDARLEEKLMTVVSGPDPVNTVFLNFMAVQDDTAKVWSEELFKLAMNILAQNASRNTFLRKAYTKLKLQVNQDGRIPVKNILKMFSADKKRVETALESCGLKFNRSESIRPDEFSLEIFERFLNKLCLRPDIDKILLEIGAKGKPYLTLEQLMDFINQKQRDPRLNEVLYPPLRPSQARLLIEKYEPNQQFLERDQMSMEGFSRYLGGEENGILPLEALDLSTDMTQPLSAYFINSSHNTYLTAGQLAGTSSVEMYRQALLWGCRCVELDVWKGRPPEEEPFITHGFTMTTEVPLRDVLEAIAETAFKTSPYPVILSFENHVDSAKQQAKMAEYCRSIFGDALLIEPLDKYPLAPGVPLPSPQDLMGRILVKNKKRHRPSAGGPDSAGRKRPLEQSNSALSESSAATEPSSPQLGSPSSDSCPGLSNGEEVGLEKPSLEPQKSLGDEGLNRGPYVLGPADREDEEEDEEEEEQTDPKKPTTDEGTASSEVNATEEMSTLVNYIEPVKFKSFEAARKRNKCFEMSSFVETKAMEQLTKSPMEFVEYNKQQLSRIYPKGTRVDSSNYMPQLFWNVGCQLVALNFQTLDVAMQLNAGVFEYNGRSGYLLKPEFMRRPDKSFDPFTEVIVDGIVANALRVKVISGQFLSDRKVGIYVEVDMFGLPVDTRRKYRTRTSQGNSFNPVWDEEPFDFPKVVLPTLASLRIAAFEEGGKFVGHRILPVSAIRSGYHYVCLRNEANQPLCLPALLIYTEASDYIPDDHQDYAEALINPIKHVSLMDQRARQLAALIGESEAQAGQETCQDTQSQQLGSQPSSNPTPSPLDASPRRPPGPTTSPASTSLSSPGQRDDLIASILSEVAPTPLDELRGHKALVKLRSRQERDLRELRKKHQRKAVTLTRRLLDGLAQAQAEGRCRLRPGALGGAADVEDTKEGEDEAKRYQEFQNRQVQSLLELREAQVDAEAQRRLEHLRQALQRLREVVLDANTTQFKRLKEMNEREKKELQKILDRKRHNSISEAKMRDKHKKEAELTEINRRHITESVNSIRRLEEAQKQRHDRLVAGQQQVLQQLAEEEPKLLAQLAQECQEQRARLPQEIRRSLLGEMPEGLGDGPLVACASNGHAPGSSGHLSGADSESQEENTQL

[7] = toxicity to human hepatoma HepG2 cells – cell-based, cherry-picked samples, cytotoxicity control, dose response (AID 1159577); format: functional
[8] = molecular target: T5, Polyadenylate-binding protein 1 (Homo sapiens, UniProt P11940); assay: MLLE binding blockers, Cy5 peptide tracer – biochemical, fluorescence polarization, Cy5-PAM2 peptide, secondary, miRNA deadenylation inhibitor project, dose response (AID 602260); format: functional; settings: read-out: IC50_Mean
T5 sequence (P11940 whole entry, the tested form may be a part): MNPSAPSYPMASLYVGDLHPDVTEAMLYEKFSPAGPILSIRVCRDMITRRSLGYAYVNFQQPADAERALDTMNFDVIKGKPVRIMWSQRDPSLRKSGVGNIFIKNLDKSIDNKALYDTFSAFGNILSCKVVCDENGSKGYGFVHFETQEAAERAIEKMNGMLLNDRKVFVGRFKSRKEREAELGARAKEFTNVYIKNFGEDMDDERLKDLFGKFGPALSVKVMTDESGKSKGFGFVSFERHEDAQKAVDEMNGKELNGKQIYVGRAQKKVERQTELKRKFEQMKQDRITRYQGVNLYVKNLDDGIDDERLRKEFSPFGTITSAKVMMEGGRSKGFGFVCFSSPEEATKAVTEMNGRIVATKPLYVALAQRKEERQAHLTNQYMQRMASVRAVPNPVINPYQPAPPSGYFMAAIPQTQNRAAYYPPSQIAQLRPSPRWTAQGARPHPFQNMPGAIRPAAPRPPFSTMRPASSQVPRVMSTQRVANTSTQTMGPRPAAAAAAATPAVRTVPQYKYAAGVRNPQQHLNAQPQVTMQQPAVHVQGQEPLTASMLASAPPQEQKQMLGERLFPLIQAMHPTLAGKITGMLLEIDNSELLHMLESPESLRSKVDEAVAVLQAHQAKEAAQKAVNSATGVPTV

[9] = molecular target: T5, Polyadenylate-binding protein 1; assay: MLLE domain peptide-binding blockers, IC50 – biochemical, fluorescence polarization, FITC-PAM2 peptide, dose response (AID 602259); format: functional; settings: read-out: IC50_Mean
[10] = IC50 of insulin release inhibition, rat insulinoma INS-1E line, 5 mM glucose, cell-based (AID 1117331); format: functional
[11] = molecular target: T6, Cytochrome P450 1A2 (Homo sapiens, UniProt P05177);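 note: PubChem cytochrome P450 panel assay, CYP1A2 panel member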
T6 sequence (P05177 whole entry): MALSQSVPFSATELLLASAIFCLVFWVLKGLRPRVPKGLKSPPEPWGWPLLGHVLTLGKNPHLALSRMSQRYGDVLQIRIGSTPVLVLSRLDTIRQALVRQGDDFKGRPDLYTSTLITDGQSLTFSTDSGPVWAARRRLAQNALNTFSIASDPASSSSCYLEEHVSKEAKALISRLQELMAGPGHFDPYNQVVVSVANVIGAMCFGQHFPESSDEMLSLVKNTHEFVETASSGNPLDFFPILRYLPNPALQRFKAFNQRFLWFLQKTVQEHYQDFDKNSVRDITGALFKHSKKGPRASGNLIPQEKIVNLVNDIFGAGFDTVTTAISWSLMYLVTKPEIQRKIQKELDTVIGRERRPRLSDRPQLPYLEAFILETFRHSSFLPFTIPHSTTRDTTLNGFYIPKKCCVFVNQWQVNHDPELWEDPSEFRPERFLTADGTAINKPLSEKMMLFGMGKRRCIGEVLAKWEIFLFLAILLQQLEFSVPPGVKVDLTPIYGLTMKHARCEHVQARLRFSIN

[12] = molecular target: T7, Heat shock factor protein 1 (Mus musculus, UniProt P38532); assay: decrease of HSF1-responsive luciferase luminescence – cell-based, NIH3T3, dose retest, confirmation (AID 2382); format: functional;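 note: NIH3T3 fibroblasts with HSF1-driven luciferase reporter stressed by proteasome inhibitor MG132; luminescence from HSF1-driven luciferase expression after 8 hours of MG132 stress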
T7 sequence (P38532 whole entry): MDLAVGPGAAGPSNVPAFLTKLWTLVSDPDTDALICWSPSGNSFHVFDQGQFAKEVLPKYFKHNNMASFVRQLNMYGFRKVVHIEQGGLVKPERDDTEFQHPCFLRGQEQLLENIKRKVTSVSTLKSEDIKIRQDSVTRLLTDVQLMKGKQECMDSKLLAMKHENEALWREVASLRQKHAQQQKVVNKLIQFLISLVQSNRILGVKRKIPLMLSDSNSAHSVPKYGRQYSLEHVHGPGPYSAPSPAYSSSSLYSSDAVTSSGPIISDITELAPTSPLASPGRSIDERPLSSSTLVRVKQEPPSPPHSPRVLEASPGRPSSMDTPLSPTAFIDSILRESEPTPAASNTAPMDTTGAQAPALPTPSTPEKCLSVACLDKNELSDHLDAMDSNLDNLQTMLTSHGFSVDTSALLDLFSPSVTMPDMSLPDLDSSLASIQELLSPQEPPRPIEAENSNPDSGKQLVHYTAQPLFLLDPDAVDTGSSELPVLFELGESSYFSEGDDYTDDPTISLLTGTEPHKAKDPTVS

[13] = molecular target: T8, COUP transcription factor 2 (Homo sapiens, UniProt P24468); assay: Luminescence-based cell-based high throughput dose response assay to identify inhibitors of COUP-TFII (NR2F2).; format: functional;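 note: HEK293 cells transiently cotransfected with COUP-TFII expression vector and reporter; luciferase reporter luminescence driven by COUP-TFII from the pX2-168 reporter plasmid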
T8 sequence (P24468 whole entry): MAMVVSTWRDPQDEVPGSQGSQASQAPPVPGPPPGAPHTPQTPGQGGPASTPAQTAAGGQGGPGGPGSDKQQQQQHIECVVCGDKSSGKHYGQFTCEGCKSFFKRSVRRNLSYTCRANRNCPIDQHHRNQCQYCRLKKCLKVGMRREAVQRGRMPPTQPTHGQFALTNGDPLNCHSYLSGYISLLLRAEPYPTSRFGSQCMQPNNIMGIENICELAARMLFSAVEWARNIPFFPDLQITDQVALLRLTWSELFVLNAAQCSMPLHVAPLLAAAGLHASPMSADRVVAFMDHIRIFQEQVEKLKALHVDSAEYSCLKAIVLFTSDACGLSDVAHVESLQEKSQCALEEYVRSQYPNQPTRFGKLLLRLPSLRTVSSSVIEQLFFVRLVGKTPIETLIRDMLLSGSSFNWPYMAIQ

For `c1ccc(-c2csc(Nc3ccccn3)n2)cc1`, the IC50 [1] was 18 µM (active), the EC50 [2] was > 67.5 µM (inactive) and the EC50 [3] was > 67.5 µM (inactive).
For `c1ccc(Nc2nc(-c3cccs3)cs2)nc1`, the EC50 [4] was 9.21 µM (active), the IC50 [1] was 15.6 µM (active) and the EC50 [2] was > 67.5 µM (inactive). For the same molecule, the EC50 [3] was > 67.5 µM (inactive).
With `CCNC(=O)Nc1ccc2c(c1)C(=O)N(C)[C@H]1CC[C@H](CC(=O)N[C@H](C)c3ccccc3)O[C@@H]1CO2` the IC50 [5] was 68.8 µM (inactive) and the IC50 [6] was 61.9 µM (inactive).
With `O=c1c(=NNc2ccccc2Cl)c(=O)c2ccccc12` the EC50 [2] was > 67.5 µM (inactive) and the EC50 [3] was > 67.5 µM (inactive).
In the case of `COc1ccc2c3c([nH]c2c1)[C@@H](CO)N(C(=O)Nc1ccc(F)cc1)CC31CN(Cc2cc(F)ccc2F)C1`, the AC50 [7] is reported as 18.8 µM (active).
In the case of `CC(=O)c1ccc2c(c1)N(CCCN(C)C)c1ccccc1S2` [ACEPROMAZINE MALEATE], the IC50 [8] is reported as > 66 µM (inactive), the IC50 [9] is reported as > 66 µM (inactive) and the IC50 [10] is reported as 11.4 µM (inactive).
With `CC(C)Oc1ccc(C(=O)Nc2ccc(NC(=O)c3ccco3)c(Cl)c2)cc1` the IC50 [5] was > 122 µM (inactive), the IC50 [6] was > 122 µM (inactive) and the AC50 [11] was 22.4 µM (inconclusive).
In the case of `O=C1NC(=O)C(=NNc2ccc3c(c2)OCCO3)C(=O)N1`, the EC50 [12] is reported as < 0.16 µM (active) and the IC50 [13] is reported as 6.75 µM (active).
